Structures can show the parent of a compound that is named as a salt.
Experiments:
NDM-1 = NDM-1 (Klebsiella pneumoniae, UniProt C7C422); assay: metallo-β-lactamase inhibition assay (nitrocefin); type: biochemical; conditions: 1.5 nM NDM-1, 100 μM nitrocefin, 37° C., pH 7.5
Description: Compounds of the invention were tested in a metallo-β-lactamase inhibition assay to investigate mechanism of action of the compounds. Results are reported as the concentration of test article required to inhibit enzyme activity by 50% (IC50).
Inhibition of metallo-β-lactamase enzyme function was performed at 37° C. in buffer at pH 7.5 (50 mM HEPES, 150 mM NaCl, 0.1 mM ZnSO4, 20 μg/mL PEG4000), containing 1.5 nM NDM-1, 100 μM nitrocefin, and a range of concentrations of compound. Absorbance at 490 nm was measured using a BMG LABTECH FLUOstar Omega microplate reader every minute for 30 minutes. IC50s were determined from the average increase in OD per minute versus the Log 10 concentration of compound using GraphPad Prism.

[1] = Cytotoxicity Assay (CellTiter-Glo); type: cell-based; conditions: human, Hep G2 cells (ATCC HB-8065); 24 h exposure; read-out: HepG2 CC50
Description: Cytotoxicity was evaluated in human Hep G2 cells (ATCC HB-8065) seeded at a density of 2×10^5 cells per well and incubated for 24 h at 37° C., 5% CO2. Cells were exposed to a doubling dilution series of test article. After 24 h exposure, the viability of the cells was determined using CellTiter-Glo® (Promega, WI, USA) according to the manufacturer's instructions. Results are reported as the concentration of test article required to reduce cell viability by 50% (CC50).

Chain of NDM-1 (C7C422 whole entry, looked up, species assumed): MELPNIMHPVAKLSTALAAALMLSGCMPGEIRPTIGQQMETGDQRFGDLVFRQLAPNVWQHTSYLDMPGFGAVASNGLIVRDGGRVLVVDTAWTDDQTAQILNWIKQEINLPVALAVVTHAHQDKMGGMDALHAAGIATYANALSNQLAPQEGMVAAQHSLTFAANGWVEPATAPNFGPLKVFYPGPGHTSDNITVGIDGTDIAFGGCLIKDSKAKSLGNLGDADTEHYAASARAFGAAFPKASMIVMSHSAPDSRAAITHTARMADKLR

Compound | IC50 (NDM-1) [µM] | CC50 at 24 h [1] [µg/mL]
NS(=O)(=O)n1ccc(-c2ccc(C(=O)NC3CC3)cc2)c1C(=O)O [Example 3, 3-[4-(Cyclopropyl-carbamoyl)phenyl]-1-sulfamoyl-pyrrole-2-carboxylic acid] | – | > 256
N#CCNC(=O)c1ccc(-c2ccn(S(N)(=O)=O)c2C(=O)O)cc1 [Example 6, 3-[4-(Cyanomethyl-carbamoyl)phenyl]-1-sulfamoyl-pyrrole-2-carboxylic acid] | 0.843 | > 256
NS(=O)(=O)n1ccc(-c2ccc(C(=O)NCC(=O)O)cc2)c1C(=O)O [Example 7, 3-[4-(Carboxymethyl-carbamoyl)phenyl]-1-sulfamoyl-pyrrole-2-carboxylic acid] | 0.65 | > 256
NS(=O)(=O)n1ccc(-c2ccc(C(=O)NC(CO)CO)cc2)c1C(=O)O [Example 12, 3-[4-[[2-Hydroxy-1-(hydroxymethyl)ethyl]carbamoyl]phenyl]-1-sulfamoyl-pyrrole-2-carboxylic acid] | 1.06 | > 128
NS(=O)(=O)n1ccc(-c2ccc(C(=O)NC[C@@H](O)CO)cc2)c1C(=O)O [Example 13, 3-[4-[[(2R)-2,3-Dihydroxypropyl]carbamoyl]phenyl]-1-sulfamoyl-pyrrole-2-carboxylic acid] | 0.566 | > 256
NS(=O)(=O)n1ccc(-c2ccc(C(=O)NCCN3CCOCC3)cc2)c1C(=O)O [Example 15, 3-[4-(2-Morpholinoethyl-carbamoyl)phenyl]-1-sulfamoyl-pyrrole-2-carboxylic acid] | 1.79 | > 256
NS(=O)(=O)n1ccc(-c2ccc(C(=O)NCCN3CCCC3=O)cc2)c1C(=O)O [Example 16, 3-[4-[2-(2-Oxopyrrolidin-1-yl)ethylcarbamoyl]phenyl]-1-sulfamoyl-pyrrole-2-carboxylic acid] | 0.623 | > 256
NC1CN(C(=O)c2cccc(-c3ccn(S(N)(=O)=O)c3C(=O)O)c2)C1 [Example 31, 3-[3-(3-Aminoazetidine-1-carbonyl)phenyl]-1-sulfamoyl-pyrrole-2-carboxylic acid] | 3.33 | > 256
CCNCCNC(=O)c1ccc(-c2ccn(S(N)(=O)=O)c2C(=O)O)cc1 [Example 32, 3-[4-[2-(Ethylamino)ethylcarbamoyl]phenyl]-1-sulfamoyl-pyrrole-2-carboxylic acid] | 1.06 | > 256
NS(=O)(=O)n1ccc(-c2ccc(C(=O)N[C@@H]3CCNC[C@H]3O)cc2)c1C(=O)O [Example 38, 3-[4-[[(3R,4R)-3-Hydroxy-4-piperidyl]carbamoyl]phenyl]-1-sulfamoyl-pyrrole-2-carboxylic acid] | 0.652 | > 256
NS(=O)(=O)n1ccc(-c2ccc(C(=O)NCCCOS(=O)(=O)O)cc2)c1C(=O)O [Example 54, 1-Sulfamoyl-3-[4-(3-sulfooxypropylcarbamoyl)phenyl]pyrrole-2-carboxylic acid] | – | > 256
NS(=O)(=O)n1ccc(CC2CCNCC2)c1C(=O)O [Example 57, 3-(4-Piperidylmethyl)-1-sulfamoyl-pyrrole-2-carboxylic acid hydrochloride] | – | > 256
CC(=O)N1CCC(Cc2ccn(S(N)(=O)=O)c2C(=O)O)CC1 [Example 62, 3-[(1-Acetyl-4-piperidyl)methyl]-1-sulfamoyl-pyrrole-2-carboxylic acid] | – | > 256
N=C(N)NCC(=O)N1CCC(c2ccn(S(N)(=O)=O)c2C(=O)O)CC1 [Example 83, 3-[1-(2-Guanidinoacetyl)-4-piperidyl]-1-sulfamoyl-pyrrole-2-carboxylic acid] | – | > 256

Now from value to compound, other results behind:

IC50 (NDM-1) [µM] | Compound | CC50 at 24 h [1] [µg/mL]
0.223 | CNC(=O)c1cccc(-c2ccn(S(N)(=O)=O)c2C(=O)O)c1 [Example 1, 3-[3-(Methylcarbamoyl)phenyl]-1-sulfamoyl-pyrrole-2-carboxylic acid] | > 256
0.111 | CN(C)C(=O)c1ccc(-c2ccn(S(N)(=O)=O)c2C(=O)O)cc1 [Example 2, 3-[4-(Dimethylcarbamoyl)phenyl]-1-sulfamoyl-pyrrole-2-carboxylic acid] | > 256
0.405 | NC(=O)CNC(=O)c1ccc(-c2ccn(S(N)(=O)=O)c2C(=O)O)cc1 [Example 8, 3-[4-[(2-Amino-2-oxo-ethyl)carbamoyl]phenyl]-1-sulfamoyl-pyrrole-2-carboxylic acid] | > 128
0.373 | CN(C)CCNC(=O)c1ccc(-c2ccn(S(N)(=O)=O)c2C(=O)O)cc1 [Example 9, 3-[4-[2-(Dimethylamino)ethylcarbamoyl]phenyl]-1-sulfamoyl-pyrrole-2-carboxylic acid] | > 256
0.374 | CC(=O)NCCNC(=O)c1ccc(-c2ccn(S(N)(=O)=O)c2C(=O)O)cc1 [Example 10, 3-[4-(2-Acetamidoethyl-carbamoyl)phenyl]-1-sulfamoyl-pyrrole-2-carboxylic acid] | > 256
0.527 | NS(=O)(=O)n1ccc(-c2ccc(C(=O)NCCCO)cc2)c1C(=O)O [Example 11, 3-[4-(3-Hydroxypropyl-carbamoyl)phenyl]-1-sulfamoyl-pyrrole-2-carboxylic acid] | > 256
0.394 | NS(=O)(=O)n1ccc(-c2ccc(C(=O)NCCN3CCNC3=O)cc2)c1C(=O)O [Example 17, 3-[4-[2-(2-Oxoimidazolidin-1-yl)ethylcarbamoyl]phenyl]-1-sulfamoyl-pyrrole-2-carboxylic acid, ammonium salt] | > 256
0.078 | NC1CN(C(=O)c2ccc(-c3ccn(S(N)(=O)=O)c3C(=O)O)cc2)C1 [Example 21, 3-[4-(3-Aminoazetidine-1-carbonyl)phenyl]-1-sulfamoyl-pyrrole-2-carboxylic acid] | > 256
0.42 | NCCNC(=O)c1ccc(-c2ccn(S(N)(=O)=O)c2C(=O)O)cc1 [Example 26, 3-[4-(2-Aminoethyl-carbamoyl)phenyl]-1-sulfamoyl-pyrrole-2-carboxylic acid] | > 256
0.131 | NS(=O)(=O)n1ccc(-c2ccc(C(=O)N3CCNCC3)cc2)c1C(=O)O [Example 27, 3-[4-(Piperazine-1-carbonyl)phenyl]-1-sulfamoyl-pyrrole-2-carboxylic acid] | > 256
0.2 | NS(=O)(=O)n1ccc(-c2ccc(C(=O)NC3CNC3)cc2)c1C(=O)O [Example 35, 3-[4-(Azetidin-3-ylcarbamoyl)phenyl]-1-sulfamoyl-pyrrole-2-carboxylic acid] | > 256
0.41 | NS(=O)(=O)n1ccc(-c2ccc(C(=O)NC3CCNCC3)cc2)c1C(=O)O [Example 36, 3-[4-(4-Piperidylcarbamoyl)phenyl]-1-sulfamoyl-pyrrole-2-carboxylic acid hydrochloride] | > 256
0.273 | NS(=O)(=O)n1ccc(-c2ccc(C(=O)N[C@H]3[C@@H]4CNC[C@@H]43)cc2)c1C(=O)O [Example 43, 3-[4-[[(1S,5R)-3-Azabicyclo[3.1.0]hexan-6-yl]carbamoyl]phenyl]-1-sulfamoyl-pyrrole-2-carboxylic acid] | > 256
0.433 | CC(=O)N1CCCC(c2ccn(S(N)(=O)=O)c2C(=O)O)C1 (centres unmarked) [Example 58, 3-[1-Acetyl-3-piperidyl]-1-sulfamoyl-pyrrole-2-carboxylic acid] | –

Source: US12544359B2, “1-aminosulfonyl-2-carboxypyrrole derivatives as metallo-beta-lactamase inhibitors” (INFEX Therapeutics Limited, priority 2019, dated 2026)
